From article PMC11432330, “Novel Drug-like HsrA Inhibitors Exhibit Potent Narrow-Spectrum Antimicrobial Activities against Helicobacter pylori” (International Journal of Molecular Sciences, 2024)
pKd: −log10 of the molar value. Converted amounts (≈) assume the structure as drawn.

Experiments:
E. faecalis ATCC 29212 = assay: MIC/MBC according to EUCAST guidelines; assay type: cell-based; conditions: Enterococcus faecalis, ATCC29212
Protocol: (§1) The antimicrobial activities of the selected compounds against several Gram-negative and Gran-positive representative species of normal human microbiota were determined according to the EUCAST guidelines. Briefly, standardized inoculums (0.5 McFarland) were freshly prepared from overnight Mueller–Hinton agar plates of reference strains E. coli ATCC 25922, K. pneumonia ATCC 700603, E. faecalis ATCC 29212, S. aureus ATCC 29213, S. epidermidis ATCC 12228, and S. agalactiae ATCC 12386. Next, bacterial suspensions adjusted to 5 × 10^5 CFU/mL in Mueller–Hinton broth were exposed to a range of concentrations from 64 to 0.031 mg/L of the selected compounds. DMSO and conventional antibiotics LVX and AMP were included as controls. […] Experiments were performed twice in triplicate.

E. coli ATCC 25922 = assay: MIC/MBC according to EUCAST guidelines; assay type: cell-based; conditions: Escherichia coli, ATCC25922
Protocol: as §1

S. aureus ATCC 29213 = assay: MIC/MBC according to EUCAST guidelines; assay type: cell-based; conditions: Staphylococcus aureus, ATCC29213
Protocol: as §1

S. agalactiae ATCC 12386 = assay: MIC/MBC according to EUCAST guidelines; assay type: cell-based; conditions: Streptococcus agalactiae, ATCC12386
Protocol: as §1

[1] = system: S. epidermidis ATCC 12228; assay: MIC/MBC according to EUCAST guidelines; assay type: cell-based; conditions: Staphylococcus epidermidis, ATCC12228
Protocol: as §1

C. jejuni ATCC 33560 = assay: MIC/MBC, broth microdilution; assay type: cell-based; conditions: Campylobacter jejuni, ATCC33560, C. jejuni ATCC 33560
Protocol: (§2) The antimicrobial activity of the HsrA inhibitors was evaluated by the determination of the minimal inhibitory concentration (MIC) against four different strains of H. pylori: ATCC 700392 (aka 26695), ATCC 43504 (MTZ-resistant reference strain), ATCC 700684 (CLR-resistant reference strain), and Donostia 2 (LVX-resistant clinical isolate). The MICs were determined by the broth microdilution method, as previously described. Briefly, H. pylori strains were grown in blood agar at 37 °C for 72 h under microaerobic conditions. Fresh inoculums adjusted at OD600 = 0.01 [~10^6 colony forming units (CFU) per mL] in BHI broth supplemented with 4% fetal bovine serum (BHI + FBS) were prepared and immediately exposed to final concentrations between 64 and 0.031 mg/L of each compound of interest. The compound solvent (DMSO) as well as conventional antibiotics (MTZ, CLR, LVX) were included as controls. […] Each experiment was performed twice in triplicate. The MIC and MBC values of the selected compounds against C. jejuni ATCC 33560 were determined by using the same method and culture conditions described for the H. pylori strains.

HsrA = HsrA (Helicobacter pylori, UniProt O25684); assay: Isothermal titration calorimetry (ITC) with HsrA; assay type: binding; conditions: ITC, 25 °C; for n (stoichiometry) / pKd: pH 8; for pKd: relative error 15%, read-out: Kd; for ΔG: absolute error 0.1; for ΔH: absolute error 0.4
HsrA, sequence (O25684 entry or part of it): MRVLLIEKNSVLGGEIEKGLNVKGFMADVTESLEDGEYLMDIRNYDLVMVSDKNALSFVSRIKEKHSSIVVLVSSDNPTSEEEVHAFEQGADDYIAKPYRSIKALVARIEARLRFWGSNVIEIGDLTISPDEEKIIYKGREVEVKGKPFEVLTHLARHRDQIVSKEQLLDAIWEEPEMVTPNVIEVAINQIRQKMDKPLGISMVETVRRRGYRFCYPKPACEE
Protocol: Molecular interactions of the selected ligands with proteins HsrA or CosR were studied by isothermal titration calorimetry (ITC), as previously described. Titrations were assessed in a high-sensitivity MicroCal Auto-iTC200 calorimeter (Malvern Panalytical, Malvern, UK). Experiments were carried out at 25 °C in freshly prepared buffer containing 50 mM Tris-HCl [pH 8], 150 mM NaCl, 10% glycerol, and 1% DMSO. A 20 µM solution of protein was located in the calorimetric cell. Then, a sequence of 19 injections of 2 µL volume each with a 200 µM solution of the corresponding ligand was programmed with a time spacing of 150 s, a stirring speed of 750 rpm, and a reference power of 10 µcal/s in the sample cell. Thermodynamic properties such as binding stoichiometry, dissociation constants, and binding enthalpies were calculated by nonlinear least-squares regression data analysis using Origin 7.0 software.

[2] = system: H. pylori ATCC 43504 (MTZ-R); assay: MIC/MBC, broth microdilution; assay type: cell-based, Helicobacter pylori; conditions: Helicobacter pylori, ATCC43504, H. pylori ATCC 43504 (MTZ-R); for MBC: read-out: MBC; for MIC: read-out: MIC
Protocol: as §2

[3] = system: H. pylori ATCC 700684 (CLR-R); assay: MIC/MBC, broth microdilution; assay type: cell-based, Helicobacter pylori; conditions: Helicobacter pylori; for MBC: ATCC700684, read-out: MBC; for MIC: ATCC700684, read-out: MIC
Protocol: as §2

[4] = system: H. pylori ATCC 700392 (26695); assay: MIC/MBC, broth microdilution; assay type: cell-based, Helicobacter pylori; conditions: Helicobacter pylori, ATCC700392, H. pylori ATCC 700392 (26695); for MBC: read-out: MBC; for MIC: read-out: MIC
Protocol: as §2

[5] = system: H. pylori Donostia 2 (LVX-R); assay: MIC/MBC, broth microdilution; assay type: cell-based, Helicobacter pylori; conditions: Helicobacter pylori, H. pylori Donostia 2 (LVX-R); for MBC: read-out: MBC; for MIC: read-out: MIC
Protocol: as §2

H. pylori = assay: MIC across the four H. pylori strains tested (text summaries); assay type: cell-based, Helicobacter pylori; conditions: Helicobacter pylori; four strains incl. CLR-, MTZ- and LVX-resistant; read-out: MIC against all H. pylori strains tested
Protocol: as §2

H. pylori HsrA = assay: Fluorescence-based thermal shift assay (HTS of Maybridge HitFinder library) for HsrA ligands; assay type: binding, Helicobacter pylori; conditions: 10 µM HsrA, 250 μM compound, vs DMSO controls
Protocol: High-throughput screening (HTS) of the Maybridge HitFinder^TM chemical library for H. pylori HsrA ligands was assessed by a fluorescence-based thermal shift assay, according to previously described procedures. Briefly, a reaction mixture containing 50 mM Tris-HCl (pH 8), 150 mM NaCl, 10% glycerol, 5 mM DTT, SYPRO® Orange ready-to-use fluorescent stain (Thermo Fisher Scientific) at a final concentration of 10 ×, and 10 µM HsrA was freshly prepared. Next, 90 μL was dispensed in every well of V-shape 96-well plates ABgene^TM Thermo-Fast^TM 96 (Thermo Fisher Scientific). Wells of columns 1 and 12 received 10 μL of DMSO (vehicle) and were used as the reference controls. The rest of the wells (columns 2 to 11) received 2.5 μL of four different compounds from the HitFinder library (250 μM as final concentration each). The unfolding curve corresponding to each well was registered from 25 °C to 75 °C in 1 °C steps using an Mx3005P™ qPCR System (Agilent Technologies, Inc., Santa Clara, CA, USA), and analyzed by Origin 7.0 (OriginLab, Northampton, MA, USA) using a homemade script that determined the midpoint temperature of unfolding (Tm).

`OC1(C(F)(F)F)CC(c2ccc3c(c2)Nc2ccccc2S3)=NN1` (stereo not shown) [Ligand VIII] was tested, and the MBC (E. faecalis ATCC 29212) was 64 µg/mL (≈ 182 µM), the MIC (E. faecalis ATCC 29212) was 64 µg/mL (≈ 182 µM) and the MBC (E. coli ATCC 25922) was > 64 µg/mL. For the same molecule, the MIC (E. coli ATCC 25922) was > 64 µg/mL, the MBC (S. aureus ATCC 29213) was 32 µg/mL (≈ 91.1 µM) and the MIC (S. aureus ATCC 29213) was 16 µg/mL (≈ 45.5 µM). It also gave an MBC (S. agalactiae ATCC 12386) of 32 µg/mL (≈ 91.1 µM), an MIC (S. agalactiae ATCC 12386) of 16 µg/mL (≈ 45.5 µM) and an MBC [1] of 4 µg/mL (≈ 11.4 µM). For the same molecule, the MIC [1] was 4 µg/mL (≈ 11.4 µM), the MBC (C. jejuni ATCC 33560) was 32 µg/mL (≈ 91.1 µM) and the MIC (C. jejuni ATCC 33560) was 16 µg/mL (≈ 45.5 µM). For the same molecule, the “n (stoichiometry)” value (HsrA) was 0.9, the pKd (HsrA) was 5.00 and the ΔG (HsrA) was “–6.8 kcal/mol”. The ΔH (HsrA) was 0.8 kcal/mol, the MBC [2] was 2 µg/mL (≈ 5.69 µM) and the MIC [2] was 1 µg/mL (≈ 2.85 µM). For the same molecule, the MBC [3] was 2 µg/mL (≈ 5.69 µM), the MIC [3] was 1 µg/mL (≈ 2.85 µM) and the MBC [4] was 2 µg/mL (≈ 5.69 µM). For the same molecule, the MIC [4] was 1 µg/mL (≈ 2.85 µM), the MBC [5] was 2 µg/mL (≈ 5.69 µM) and the MIC [5] was 2 µg/mL (≈ 5.69 µM). For the same molecule, the MIC (H. pylori) was 0.031 to 4 µg/mL (≈ 0.0882 to 11.4 µM).

For `N#C/C(=C\C=C\c1ccccc1)c1nc2ccccc2[nH]1` [Ligand XII], the MBC (E. faecalis ATCC 29212) was > 64 µg/mL, the MIC (E. faecalis ATCC 29212) was > 64 µg/mL and the MBC (E. coli ATCC 25922) was > 64 µg/mL. The MIC (E. coli ATCC 25922) was > 64 µg/mL, the MBC (S. aureus ATCC 29213) was > 64 µg/mL and the MIC (S. aureus ATCC 29213) was > 64 µg/mL. The MBC (S. agalactiae ATCC 12386) was > 64 µg/mL, the MIC (S. agalactiae ATCC 12386) was > 64 µg/mL and the MBC [1] was > 64 µg/mL. The MIC [1] was > 64 µg/mL, the MBC (C. jejuni ATCC 33560) was > 64 µg/mL and the MIC (C. jejuni ATCC 33560) was 64 µg/mL (≈ 236 µM). The “ΔTm (upshift of midpoint temperature of unfolding of HsrA)” value (H. pylori HsrA) was 9 °C, the “n (stoichiometry)” value (HsrA) was 1.0 and the pKd (HsrA) was 4.37. For the same molecule, the ΔG (HsrA) was “–6.0 kcal/mol”, the ΔH (HsrA) was 0.8 kcal/mol and the MBC [2] was 0.5 µg/mL (≈ 1.84 µM). The MIC [2] was 0.5 µg/mL (≈ 1.84 µM), the MBC [3] was 0.5 µg/mL (≈ 1.84 µM) and the MIC [3] was 0.5 µg/mL (≈ 1.84 µM). The MBC [4] was 2 µg/mL (≈ 7.37 µM), the MIC [4] was 2 µg/mL (≈ 7.37 µM) and the MBC [5] was 1 µg/mL (≈ 3.69 µM). For the same molecule, the MIC [5] was 1 µg/mL (≈ 3.69 µM) and the MIC (H. pylori) was 0.031 to 4 µg/mL (≈ 0.114 to 14.7 µM).

With `CSc1cccc(Nc2nc(C(C)(C)C)cs2)c1` [Ligand XI] the MBC (E. faecalis ATCC 29212) was 64 µg/mL (≈ 230 µM), the MIC (E. faecalis ATCC 29212) was 64 µg/mL (≈ 230 µM) and the MBC (E. coli ATCC 25922) was > 64 µg/mL. The MIC (E. coli ATCC 25922) was > 64 µg/mL, the MBC (S. aureus ATCC 29213) was 32 µg/mL (≈ 115 µM) and the MIC (S. aureus ATCC 29213) was 16 µg/mL (≈ 57.5 µM). The MBC (S. agalactiae ATCC 12386) was 8 µg/mL (≈ 28.7 µM), the MIC (S. agalactiae ATCC 12386) was 8 µg/mL (≈ 28.7 µM) and the MBC [1] was 64 µg/mL (≈ 230 µM). The MIC [1] was 16 µg/mL (≈ 57.5 µM), the MBC (C. jejuni ATCC 33560) was > 64 µg/mL and the MIC (C. jejuni ATCC 33560) was > 64 µg/mL. The “n (stoichiometry)” value (HsrA) was 1.1, the pKd (HsrA) was 4.31 and the ΔG (HsrA) was “–5.9 kcal/mol”. For the same molecule, the ΔH (HsrA) was “–3.1 kcal/mol”, the MBC [2] was 4 µg/mL (≈ 14.4 µM) and the MIC [2] was 2 µg/mL (≈ 7.18 µM). The MBC [3] was 4 µg/mL (≈ 14.4 µM), the MIC [3] was 2 µg/mL (≈ 7.18 µM) and the MBC [4] was 4 µg/mL (≈ 14.4 µM). The MIC [4] was 4 µg/mL (≈ 14.4 µM), the MBC [5] was 4 µg/mL (≈ 14.4 µM) and the MIC [5] was 2 µg/mL (≈ 7.18 µM). For the same molecule, the MIC (H. pylori) was 0.031 to 4 µg/mL (≈ 0.111 to 14.4 µM).
